Assay results from patent US8586505B2 (SDS Biotech K. K., priority 2009, dated 2013).

How the values were obtained:
Sphaerotheca fuliginea = experiment: Test of examining control effect on Sphaerotheca fuliginea (potted cucumber plants); assay type: in vivo; settings: Podosphaera fuliginea, 336 h; 10% wettable powder adjusted to 125 ppm, 15 ml/pot sprayed on potted cucumber plants one day before spray inoculation; assessed after 14 days in greenhouse; read-out: Determination of control effect (preventive value) on Sphaerotheca fuliginea
Method in brief: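 Control effect rated high at preventive value 60–100% and low below 60%, from lesion area relative to untreated plants 14 days after spray inoculation with S. fuliginea (1.0×10^5 cells/ml). Compound applied at 125 ppm as wettable-powder spray one day before inoculation, on 2nd-leaf-stage Sagamihanjiro cucumber.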

Phytophthora infestans = experiment: whole plant or invertebrate; assay type: in vivo; settings: in Solanum lycopersicum, 96 h, read-out: Determination of control effect (preventive value)
[1] = tested on: Pseudoperonospora cubensis; experiment: Test of examining control effect on Pseudoperonospora cubensis (potted cucumber plants); assay type: in vivo; settings: 96 h, 10% wettable powder adjusted to 125 ppm, 15 ml/pot sprayed on potted cucumber plants one day before spray inoculation, assessed after 1 day wet chamber and 3 days greenhouse, read-out: Determination of control effect (preventive value) on Pseudoperonospora cubensis
Method in brief: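 Preventive treatment: 125 ppm sample agent solution (from 10% wettable powder) sprayed at 15 ml/pot on 2.5-leaf Sagamihanjiro cucumbers, then P. cubensis inoculated next day at 1.0×10^4 cells/ml. Incubation was 1 day wet at 21° C plus 3 days greenhouse. Lesion area rate compared with untreated gives preventive value (≥60% high).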

| Compound | pest or weed control at 125 µg/mL (Sphaerotheca fuliginea) | melting point | pest or weed control at 125 ppm (Phytophthora infestans) | pest or weed control at 125 µg/mL [1] |
| --- | --- | --- | --- | --- |
| CC(C)[Si](C#CCCNc1ncnc2sccc12)(C(C)C)C(C)C [compound 4] | 0 to 60% | 196 to 198 °C | 0 to 60% | 0 to 60% |
| CC(C)(C)[Si](C)(C)C#CCCNc1ncnc2sccc12 [compound 5] | 60 to 100% | 190 to 192 °C | 0 to 60% | 60 to 100% |
| Cc1cccc(C#CCCNc2ncnc3sccc23)c1 [compound 18] | 60 to 100% | 120 to 123 °C | 0 to 60% | 60 to 100% |
| FC(F)(F)c1cccc(C#CCCNc2ncnc3sccc23)c1 [compound 26] | 60 to 100% | 123 to 125 °C | 0 to 60% | 60 to 100% |
| O=[N+]([O-])c1cccc(C#CCCNc2ncnc3sccc23)c1 [compound 39] | – | 171 to 172 °C | 60 to 100% | 60 to 100% |
| O=[N+]([O-])c1ccc(C#CCCNc2ncnc3sccc23)cc1 [compound 40] | – | 184 to 185 °C | 60 to 100% | 60 to 100% |
| Fc1ccc(C#CCCNc2ncnc3sccc23)c(F)c1 [compound 41] | – | 177 to 178 °C | 60 to 100% | 60 to 100% |
| Fc1cccc(F)c1C#CCCNc1ncnc2sccc12 [compound 42] | – | 179 to 181 °C | 60 to 100% | 60 to 100% |
| Fc1cc(C#CCCNc2ncnc3sccc23)cc(F)c1F [compound 43] | – | 158 to 159 °C | 60 to 100% | 60 to 100% |
| C(#Cc1cccnc1)CCNc1ncnc2sccc12 [compound 56] | – | 138 to 140 °C | 0 to 60% | 60 to 100% |
| C(#Cc1csc(-c2ccco2)n1)CCNc1ncnc2sccc12 [compound 77] | 0 to 60% | 53 to 55 °C | 0 to 60% | – |
| COCc1ccccc1C#CCCNc1ncnc2ccc(OCc3ccccc3)cc12 [compound 340] | 0 to 60% | – | 0 to 60% | 60 to 100% |
| COCc1ccccc1C#CCCNc1ncnc2c(C)cc(C)cc12 [compound 341] | 0 to 60% | – | 0 to 60% | 60 to 100% |
| FC(F)(F)c1ccccc1C#CCCNc1ncnc2cc3ccccc3cc12 [compound 342] | 0 to 60% | – | 0 to 60% | 60 to 100% |
| CC(CC#Cc1ccccc1C(F)(F)F)Nc1ncnc2c(F)cccc12 (stereo not shown) [compound 343] | 60 to 100% | – | 60 to 100% | 60 to 100% |
| CC(CC#Cc1ccc(Cl)cc1C(F)(F)F)Nc1ncnc2cc(F)ccc12 (stereo not shown) [compound 344] | 60 to 100% | – | 0 to 60% | 60 to 100% |
| CC(CC#Cc1ccc(Cl)cc1C(F)(F)F)Nc1ncnc2ccc(F)cc12 (stereo not shown) [compound 345] | 60 to 100% | – | 0 to 60% | 60 to 100% |
| CC(CC#Cc1ccc(Cl)cc1C(F)(F)F)Nc1ncnc2cccc(F)c12 (stereo not shown) [compound 346] | 60 to 100% | – | 0 to 60% | 60 to 100% |
| CC(CC#Cc1ccc(F)cc1C(F)(F)F)Nc1ncnc2cc(F)ccc12 (stereo not shown) [compound 347] | 60 to 100% | – | 0 to 60% | 60 to 100% |
| CC(CC#Cc1ccc(Cl)cc1C(F)(F)F)Nc1ncnc2c(Cl)cccc12 (stereo not shown) [compound 349] | 60 to 100% | – | 0 to 60% | 60 to 100% |
| CC(CC#Cc1ccc(Cl)cc1C(F)(F)F)Nc1ncnc2c(C(F)(F)F)cccc12 (stereo not shown) [compound 351] | 60 to 100% | – | 0 to 60% | 60 to 100% |
| COc1cccc2c(NC(C)CC#Cc3ccc(Cl)cc3C(F)(F)F)ncnc12 (stereo not shown) [compound 352] | 60 to 100% | – | 0 to 60% | 60 to 100% |
| COc1cccc2c(NC(C)CC#Cc3ccc(F)cc3C(F)(F)F)ncnc12 (stereo not shown) [compound 353] | 60 to 100% | – | 0 to 60% | 60 to 100% |
| Cc1cccc2c(NC(C)CC#Cc3ccc(Cl)cc3C(F)(F)F)ncnc12 (stereo not shown) [compound 354] | 60 to 100% | – | 0 to 60% | 60 to 100% |

| Compound | pest or weed control at 125 µg/mL (Sphaerotheca fuliginea) | melting point | pest or weed control at 125 ppm (Phytophthora infestans) | pest or weed control at 125 µg/mL [1] |
| --- | --- | --- | --- | --- |
| Cc1cc(NCCC#Cc2ccc(Cl)cc2C(F)(F)F)ncn1 [compound 359] | 0 to 60% | – | 0 to 60% | 0 to 60% |
| Cc1ncnc(NCCC#Cc2ccc(Cl)cc2C(F)(F)F)c1Cl [compound 360] | 60 to 100% | – | 0 to 60% | 60 to 100% |
| COCc1cc(C)ccc1C#CCCNc1ncnc(C)c1Cl [compound 361] | 60 to 100% | – | 60 to 100% | 60 to 100% |
| COCc1ccccc1C#CCCNc1ncnc(C)c1Cl [compound 362] | 60 to 100% | – | 60 to 100% | 60 to 100% |
| COCc1ccccc1C#CCCNc1ncnc(Cl)c1C [compound 363] | 60 to 100% | – | 60 to 100% | 60 to 100% |
| Cc1c(Cl)ncnc1NCCC#Cc1ccccc1C(F)(F)F [compound 364] | 60 to 100% | – | 0 to 60% | 60 to 100% |
| COCc1ccccc1C#CCCNc1ncnc(Cl)c1Cl [compound 365] | 60 to 100% | – | 60 to 100% | 60 to 100% |
| COCc1ccccc1C#CCCNc1ncnc(Cl)c1Br [compound 366] | 60 to 100% | – | 60 to 100% | 60 to 100% |
| FC(F)(F)c1ccccc1C#CCCNc1ncnc(Cl)c1Br [compound 367] | 60 to 100% | – | 0 to 60% | 60 to 100% |
| Nc1c(Cl)ncnc1NCCC#Cc1ccccc1C(F)(F)F [compound 368] | 60 to 100% | – | 0 to 60% | 60 to 100% |
| CS(=O)(=O)c1ncnc(NCCC#Cc2ccccc2C(F)(F)F)c1[N+](=O)[O-] [compound 369] | 0 to 60% | – | 0 to 60% | 0 to 60% |
| O=[N+]([O-])c1c(Cl)ncnc1NCCC#Cc1ccccc1C(F)(F)F [compound 370] | 0 to 60% | – | 0 to 60% | 0 to 60% |
| CSc1ncnc(NCCC#Cc2ccccc2C(F)(F)F)c1[N+](=O)[O-] [compound 371] | 0 to 60% | – | 0 to 60% | 0 to 60% |
| Clc1ncnc(NCCC#Cc2ccccc2)c1-c1ccccc1 [compound 373] | 0 to 60% | – | 0 to 60% | 0 to 60% |
| CC(F)c1ncnc(NCCC#Cc2ccccc2)c1I (stereo not shown) [compound 374] | 60 to 100% | – | 0 to 60% | 60 to 100% |
| CC(F)c1ncnc(NCCC#Cc2ccccc2)c1Br (stereo not shown) [compound 375] | 60 to 100% | – | 60 to 100% | 60 to 100% |
| C(#Cc1ccccc1)CCNc1ncnc2[nH]ccc12 [compound 379] | 60 to 100% | – | 0 to 60% | 0 to 60% |
| COCc1ccccc1C#CCCNc1ncnc2ncccc12 [compound 380] | 60 to 100% | – | 60 to 100% | 60 to 100% |
| CC(CC#Cc1ccccc1)Nc1ncnc(C(C)F)c1I (stereo not shown) [compound 381] | 60 to 100% | – | 60 to 100% | 60 to 100% |
| CC(CC#Cc1ccc(Cl)cc1C(F)(F)F)Nc1ncnc(C(C)Cl)c1Cl (stereo not shown) [compound 383] | 60 to 100% | – | 0 to 60% | 60 to 100% |
| Cc1ncnc(NC(C)CC#Cc2ccc(Cl)cc2C(F)(F)F)c1I (stereo not shown) [compound 386] | 60 to 100% | – | 0 to 60% | 60 to 100% |
| Cc1ncnc(NC(C)CC#Cc2ccc(Cl)cc2C(F)(F)F)c1Br (stereo not shown) [compound 387] | 60 to 100% | – | 0 to 60% | 60 to 100% |
| CC(CC#Cc1ccc(Cl)cc1C(F)(F)F)Nc1ncnc(C(F)(F)F)c1Cl (stereo not shown) [compound 388] | 60 to 100% | – | 0 to 60% | 60 to 100% |
| Cc1ncnc(NC(C)CC#Cc2ccccc2)c1Cl (stereo not shown) [compound 389] | 60 to 100% | – | 0 to 60% | 60 to 100% |
